The values below come from patent US12281119B2, “Imidazo[2,1-f][1,2,4]triazin-4-amine derivatives as TLR7 agonist” (BEIGENE, LTD., priority 2019, dated 2025).

For the assay, the target named is T1, human TLR7 (Homo sapiens, UniProt Q9NYK1).
T1 sequence (Q9NYK1 27-1049): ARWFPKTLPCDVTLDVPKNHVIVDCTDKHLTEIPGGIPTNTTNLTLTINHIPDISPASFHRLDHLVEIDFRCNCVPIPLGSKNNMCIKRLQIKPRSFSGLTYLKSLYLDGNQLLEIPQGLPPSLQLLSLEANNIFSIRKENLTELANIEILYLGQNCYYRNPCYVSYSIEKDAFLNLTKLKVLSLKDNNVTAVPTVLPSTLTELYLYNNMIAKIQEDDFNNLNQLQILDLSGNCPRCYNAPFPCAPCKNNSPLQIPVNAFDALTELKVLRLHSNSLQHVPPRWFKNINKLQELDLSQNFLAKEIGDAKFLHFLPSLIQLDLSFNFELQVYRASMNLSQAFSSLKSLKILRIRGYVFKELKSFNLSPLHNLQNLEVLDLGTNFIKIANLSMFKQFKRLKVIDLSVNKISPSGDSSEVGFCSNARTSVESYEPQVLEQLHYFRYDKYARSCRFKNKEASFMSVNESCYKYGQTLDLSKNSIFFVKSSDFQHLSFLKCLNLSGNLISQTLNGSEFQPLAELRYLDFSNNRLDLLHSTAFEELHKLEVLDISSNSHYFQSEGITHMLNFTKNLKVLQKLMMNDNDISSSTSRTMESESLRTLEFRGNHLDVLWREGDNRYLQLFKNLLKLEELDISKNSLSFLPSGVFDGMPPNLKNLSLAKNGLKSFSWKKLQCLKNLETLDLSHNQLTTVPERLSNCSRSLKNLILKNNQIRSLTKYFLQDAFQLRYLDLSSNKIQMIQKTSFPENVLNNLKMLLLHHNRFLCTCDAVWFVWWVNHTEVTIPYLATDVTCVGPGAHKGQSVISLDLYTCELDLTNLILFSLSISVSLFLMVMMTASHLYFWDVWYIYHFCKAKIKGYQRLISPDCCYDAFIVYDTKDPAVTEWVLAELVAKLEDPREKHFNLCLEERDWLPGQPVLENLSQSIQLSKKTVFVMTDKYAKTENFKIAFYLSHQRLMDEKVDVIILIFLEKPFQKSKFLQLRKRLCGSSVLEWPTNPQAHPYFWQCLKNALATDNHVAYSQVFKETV
As to the kind of experiment: HEK293-Blue hTLR7 reporter assay (QUANTI-BLUE, SEAP readout). It counts as cell-based. On the set-up: host or cells: HEK293 (HEK-Blue-hTLR7). As to conditions: HEK-Blue-hTLR7 cells, QUANTI-BLUE assay (A1-A76), 24 hrs. As to the method: HEK293-Blue hTLR7 Reporter Assay:
HEK-Blue-hTLR7 cell line (Invivogen, Cat. No. hkb-htlr7) was designed so that the expression of the secreted embryonic alkaline phosphatase (SEAP) was induced by activating NF-κ and AP-1 via stimulating human TLR7 with TLR7 agonists.
HEK-Blue-hTLR7 cells were seeded at a density of 4×10^4 cells/well in a volume of 180 μL in a 96-well plate in DMEM (Cat. No. 11965-092) supplemented with 10% (v/v) heat-inactivated fetal bovine serum (FBS) (Gibco, 10099-1441), 100 U/ml penicillin and 100 μg/ml streptomycin (Gibco, 15140122) containing […], […] and 10% (v/v) heat-inactivated fetal bovine serum. The cells were settled for 5 hrs, then treated with increasing amounts of tested compounds at 37° C. for 24 hrs. Then 20 μL of the supernatant from each well was incubated with 180 uL Quanti-blue substrate solution at 37° C. for 10-30 mins before the activity of the SEAP was determined at 620-655 nm using a spectrophotometer. The EC50 value for each compound was calculated with GraphPad Prism software using the sigmoidal dose-response function.
Usually EC50 stands for the concentration needed to bring the measured effect to its halfway point. High values mean weaker potency, low ones greater potency. Compound `CCCCOc1nc(N)c2ncc(Cc3ccc(CN)cc3)n2n1` [Compound A46, 7-(4-(aminomethyl)benzyl)-2-butoxyimidazo[2,1-f][1,2,4]triazin-4-amine] yielded an EC50 of more than 10000 nM.
Consider `CCCCOc1nc(N)c2ncc(Cc3ccc(CN4CCC(Oc5ccccc5)CC4)cc3)n2n1` [Compound A47, 2-butoxy-7-(4-((4-phenoxypiperidin-1-yl)methyl)benzyl)imidazo[2,1-f][1,2,4]triazin-4-amine], for which the EC50 is more than 10000 nM.
As for `Cc1cc(COc2nc(N)c3ncc(Cc4ccc(CN5CCCC5)cc4)n3n2)no1` [Compound A48, 2-((5-methylisoxazol-3-yl)methoxy)-7-(4-(pyrrolidin-1-ylmethyl)benzyl)imidazo[2,1-f][1,2,4]triazin-4-amine], the EC50 is more than 10000 nM.
Consider `CCCCOc1nc(N)c2ncc(Cc3ccc(OC4C[C@H]5CC[C@@H](C4)N5CC)cc3F)n2n1` (stereo partly drawn) [Compound A49, 2-butoxy-7-(4-(((1R,5S)-8-ethyl-8-azabicyclo[3.2.1]octan-3-yl)oxy)-2-fluorobenzyl)imidazo[2,1-f][1,2,4]triazin-4-amine], for which a half-maximal response (EC50) required 4320 nM.
Regarding `CCCCOc1nc(N)c2ncc(Cc3ccc(OC)cn3)n2n1` [Compound A50, 2-butoxy-7-((5-methoxypyridin-2-yl)methyl)imidazo[2,1-f][1,2,4]triazin-4-amine], the EC50 was more than 10000 nM.
As for `CCCCOc1nc(N)c2ncc(Cc3cccc(OC)n3)n2n1` [Compound A51, 2-butoxy-7-((6-methoxypyridin-2-yl)methyl)imidazo[2,1-f][1,2,4]triazin-4-amine], the figure is more than 10000 nM; as for `Nc1nc(N)c2ncc(Cc3ccc(CN4CCCC4)cc3)n2n1` [Compound A52, 7-(4-(pyrrolidin-1-ylmethyl)benzyl)imidazo[2,1-f] [1,2,4]triazine-2,4-diamine], more than 10000 nM; as for `CCCCOc1nc(N)c2ncc(Cc3ccc(OCC(C)(C)CN(C)C)nc3)n2n1` [Compound A53, 2-butoxy-7-((6-(3-(dimethylamino)-2,2-dimethylpropoxy)pyridin-3-yl)methyl)imidazo[2,1-f][1,2,4]triazin-4-amine], 1430 nM.
With `CC(C)COc1nc(N)c2ncc(Cc3ccc(CN4CCCC4)cc3)n2n1` [Compound A54, 2-isobutoxy-7-(4-(pyrrolidin-1-ylmethyl)benzyl)imidazo[2,1-f][1,2,4]triazin-4-amine], the EC50 is more than 10000 nM.
In turn, `CCCCOc1nc(N)c2ncc(Cc3ncccc3OC)n2n1` [Compound A55, 2-butoxy-7-((3-methoxypyridin-2-yl)methyl)imidazo[2,1-f][1,2,4]triazin-4-amine] gave an EC50 of more than 10000 nM.
Compound `CCCCOc1nc(N)c2ncc(C(O)c3ncccc3OC)n2n1` (stereo not shown) [Compound A56, (4-amino-2-butoxyimidazo[2,1-f][1,2,4]triazin-7-yl)(3-methoxypyridin-2-yl)methanol] displayed an EC50 of more than 10000 nM.
Compound `CCCCOc1nc(N)c2ncc(Cc3ccc(OCCCN(C)C)c(C(=O)OC)c3)n2n1` [Compound A57, methyl 5-((4-amino-2-butoxyimidazo[2,1-f][1,2,4]triazin-7-yl)methyl)-2-(3-(dimethylamino)propoxy)benzoate] displayed an EC50 of 375 nM.
As for `CCCCOc1nc(N)c2ncc(Cc3ccc(OCCN(C)C(C)=O)nc3)n2n1` [Compound A59, N-(2-((5-((4-amino-2-butoxyimidazo[2,1-f][1,2,4]triazin-7-yl)methyl)pyridin-2-yl)oxy)ethyl)-N-methylacetamide], the EC50 was more than 10000 nM.
As for `CCCCOc1nc(N)c2ncc(Cc3ccc(OC4CCN(CC)C4)cc3F)n2n1` (stereo not shown) [Compound A60, 2-butoxy-7-(4-((1-ethylpyrrolidin-3-yl)oxy)-2-fluorobenzyl)imidazo[2,1-f][1,2,4]triazin-4-amine], the figure is 246 nM.
The compound `CCCCOc1nc(N)c2ncc(Cc3ccc(OC4CCNC4)cc3F)n2n1` (stereo not shown) [Compound A61, 2-butoxy-7-(2-fluoro-4-(pyrrolidin-3-yloxy)benzyl)imidazo[2,1-f][1,2,4]triazin-4-amine] gave an EC50 of 183 nM. This EC50 and that of the compound before are within 1.5-fold of each other.
In turn, `CCCCOc1nc(N)c2ncc(Cc3ccc(Cn4cncn4)cc3)n2n1` [Compound A62, 7-(4-((1H-1,2,4-triazol-1-yl)methyl)benzyl)-2-butoxyimidazo[2,1-f][1,2,4]triazin-4-amine] displayed an EC50 of more than 10000 nM.
`CCCCOc1nc(N)c2ncc(Cc3ccc(OCCCNC)cc3)n2n1` [Compound A63, 2-butoxy-7-(4-(3-(methylamino)propoxy)benzyl)imidazo[2,1-f][1,2,4]triazin-4-amine]: the EC50 is 996 nM. That is a sub-micromolar value.
For the compound `Nc1nc(NCc2ccco2)nn2c(Cc3ccc(CN4CCCC4)cc3)cnc12` [Compound A64, N^2-(furan-2-ylmethyl)-7-(4-(pyrrolidin-1-ylmethyl)benzyl)imidazo[2,1-f][1,2,4]triazine-2,4-diamine], the EC50 was determined as 4000 nM.
In the case of `Nc1nc(O)nn2c(Cc3ccc(CN4CCCC4)cc3)cnc12` [Compound A65, 4-amino-7-(4-(pyrrolidin-1-ylmethyl)benzyl)imidazo[2,1-f][1,2,4]triazin-2-ol], the EC50 is more than 10000 nM.
On to `CCCCOc1nc(N)c2ncc(Cc3ccc(C4CCN(C)C4)cc3)n2n1` (stereo not shown) [Compound A66, 2-butoxy-7-(4-(1-methylpyrrolidin-3-yl)benzyl)imidazo[2,1-f][1,2,4]triazin-4-amine], for which a half-maximal effect (EC50) was put at 387 nM.
As for `CCCCNc1nc(N)c2ncc(Cc3ccc(CN4CCCC4)cc3)n2n1` [Compound A67, N2-butyl-7-(4-(pyrrolidin-1-ylmethyl)benzyl)imidazo[2,1-f][1,2,4]triazine-2,4-diamine], the figure is 585 nM; as for `Nc1nc(OCc2cccnc2)nn2c(Cc3ccc(CN4CCCC4)cc3)cnc12` [Compound A68, 2-(pyridin-3-ylmethoxy)-7-(4-(pyrrolidin-1-ylmethyl)benzyl)imidazo[2,1-f][1,2,4]triazin-4-amine], more than 10000 nM; as for `Nc1nc(OCCCC(F)(F)F)nn2c(Cc3ccc(CN4CCCC4)cc3)cnc12` [Compound A69, 7-(4-(pyrrolidin-1-ylmethyl)benzyl)-2-(4,4,4-trifluorobutoxy)imidazo[2,1-f][1,2,4]triazin-4-amine], 1240 nM.
`CCCCOc1nc(N)c2ncc(Cc3cccc(CN)c3)n2n1` [Compound A70, 7-(3-(aminomethyl)benzyl)-2-butoxyimidazo[2,1-f][1,2,4]triazin-4-amine] yielded an EC50 of more than 10000 nM.
Consider `CCCCOc1nc(N)c2ncc(Cc3ccc(CN4CCN(CCCO)CC4)cc3)n2n1` [Compound A71, 3-(4-(4-((4-amino-2-butoxyimidazo[2,1-f][1,2,4]triazin-7-yl)methyl)benzyl)piperazin-1-yl)propan-1-ol], for which the EC50 was found to be 1170 nM.
`CCCCOc1nc(N)c2ncc(Cc3cnc(OC4CCNCC4)c(C)c3)n2n1` [Compound A72, 2-butoxy-7-((5-methyl-6-(piperidin-4-yloxy)pyridin-3-yl)methyl)imidazo[2,1-f][1,2,4]triazin-4-amine] returned an EC50 of 462 nM.
As for `CCCCOc1nc(N)c2ncc(C(O)c3cc(OC)ccn3)n2n1` (stereo not shown) [Compound A73, (4-amino-2-butoxyimidazo[2,1-f][1,2,4]triazin-7-yl)(4-methoxypyridin-2-yl)methanol], the figure is more than 10000 nM.
For `CCCCOc1nc(N)c2ncc(C(O)c3ccccn3)n2n1` (stereo not shown) [Compound A74, (4-amino-2-butoxyimidazo[2,1-f][1,2,4]triazin-7-yl)(pyridin-2-yl)methanol], the EC50 is more than 10000 nM.
